From patent US20230075368A1, “IDENTIFICATION OF AN EGFR-BIN3 PATHWAY THAT ACTIVELY SUPPRESSES INVASION AND REDUCES TUMOR SIZE IN GLIOBLASTOMA” (The United States Govemment as represented by the …, priority 2020, published 2023)

Tested on: Mayo PDX cells
Experiment: Matrigel invasion assay
Format: cell-based, human
Procedure: Invasion status of cells was tested with Matrigel Boyden chamber assays (Fisher). 1×10^5 cells were plated on BD BioCoat Matrigel invasion chambers. 24 hours after treatment with drugs, invaded cells were stained with the HEMA-3 kit (Fisher). Invaded cells were counted in 4-5 random fields.
An equal number of cells (5×10^4) were seeded on Matrigel coated inserts, and were untreated (control vehicle) or stimulated with 50 ng/ml EGF for 24 hours, cells invading to the other side of the membrane were counted and presented as percentage cell invasion. […] A similar invasion assay was conducted on GBM26 cells (FIG. 2D). […] Cells were transfected with EGFR or scrambled siRNA for 48 hours before the invasion assay. A similar invasion assay was performed on GBM6 (FIG. 2G). […] Cells were transiently transfected with empty or EGFR wildtype (EGFRwt) overexpressing vector, and invasion assay was performed after 48 hours after transfection. […] Cells were treated with or without 50 ng/ml EGF for 48 hours before the assay. The Western blot images are representative of three independent biological replicates. Actin served as loading control. Data are represented as mean±SEM from three independent experiments. *P<0.05, **P<0.01, n.s. not significant, unpaired two-tailed Student's t-test.
FIG. 3C and FIG. 3D show the results of a Matrigel invasion assay of EGFR siRNA knockdown in GBM12 and GBM6 in response to EGF. Cells were treated with EGFR or scrambled siRNA for 48 hours, transfected cells were seeded on Matrigel coated inserts and were treated with or without 50 ng/ml EGF for 24 hours. […] Cells were transiently transfected with EGFRvIII expression or empty vector, invasion assay was performed 48 hours after transfection. […] Western blot images are representative of three independent biological replicates. Actin served as a loading control. Data are represented as mean±SEM from three independent experiments. […], **P<0.01, ***P<0.001, n.s. not significant, unpaired two-tailed t-test.

C#Cc1cccc(Nc2ncnc3cc(OCCOC)c(OCCOC)cc23)c1 [erlotinib, Erlotinib]
cell invasion (erlotinib 1 μM, 24 hours, GBM12, GBM26): suppressed the invasiveness
cell invasion (erlotinib, 48 h): returns to baseline
